# From patent US20250052749A1, “SYSTEMS AND METHODS OF SELECTING COMPOUNDS THAT INDUCE CONFORMATIONAL CHANGES IN MUTANT CEREBLON” (BRISTOL-MYERS SQUIBB COMPANY, priority 2021, published 2025)
# Entries after “also recorded” stand apart in the source; their conditions may differ.
# What was measured:
# Cereblon = Cereblon (Homo sapiens, UniProt Q96SW2); assay: Cereblon binding affinity; conditions: CELMoD affinity for Cereblon compared with Pomalidomide/IMiD
# Cereblon-DDB1 [1] = biological target: T1, Cereblon-DDB1 (Homo sapiens, UniProt Q96SW2); assay: hydrogen-deuterium exchange mass spectrometry (HDX-MS) of Cereblon-DDB1 peptides; design: made in house; conditions: compared with unliganded DDB1-Cereblon; result in words
# Procedure: For peptide identification, differential HDX-MS experiments were conducted as previously described with a few modifications (Chalmers, M. J., et al. (2006). Probing protein ligand interactions by automated hydrogen/deuterium exchange mass spectrometry. Analytical Chemistry, 78(4), 1005-1014). Peptides were identified using tandem MS (MS/MS) with an Orbitrap mass spectrometer (Q Exactive, ThermoFisher). Product ion spectra were acquired in data-dependent mode with the top five most abundant ions selected for the product ion analysis per scan event. The MS/MS data files were submitted to Mascot (Matrix Science) for peptide identification. […] The MASCOT search was repeated against a decoy (reverse) sequence and ambiguous identifications were ruled out and not included in the HDX peptide set. […]
# Mass spectrometric data were acquired using an Orbitrap mass spectrometer (Exactive, ThermoFisher). […] The intensity weighted mean m/z centroid value of each peptide envelope was calculated and subsequently converted into a percentage of deuterium incorporation. […] Statistical significance for the differential HDX data is determined by an unpaired t-test for each time point, a procedure that is integrated into the HDX Workbench software (Pascal, B. D., et al. (2012). HDX workbench: software for the analysis of H/D exchange MS data. Journal of the American Society for Mass Spectrometry, 23(9), 1512-1521.). […]
# Cereblon-DDB1 [2] = biological target: T1, Cereblon-DDB1; assay: cryo-EM population analysis of open/closed Cereblon conformers with saturating IMiD/CELMoD; design: human cereblon (amino acids 5-442); ZZ-domain-6×His-thrombin site (cleaved yes); made in house; host or cells: SF9 insect cells; conditions: wild-type Cereblon-DDB1, saturating amount of drug, cryo-EM single-particle analysis
# Procedure: (§1) Frozen 20 mg/mL cereblon-DDB1 complexes were thawed and diluted to 5 mg/mL with buffer containing 20 mM HEPES pH 7, 150 mM NaCl, 3 mM TCEP. Immediately prior to plunge-freezing in liquid ethane, samples are diluted 10-fold in the same buffer supplemented with 0.011% Lauryl Maltose-Neopentyl Glycol (LMNG) to limit complex dissociation. Quantifoil 300 mesh R1.2/1.3 UltrAuFoil Holey Gold Films were plasma cleaned for 7 seconds using a Solarus plasma cleaner (Gatan, Inc.) with a 75% nitrogen, 25% oxygen atmosphere at 15 W. Immediately prior to sample application, grids are further pre-treated with 4 μL solution containing 10 μM cereblon binding-deficient mutant Ikaros residues 140-196 Q146A G151N and blotted from behind with torn Whatman 1 filter paper. 4 μL dilute sample is applied, excess sample was blotted away for 4 s and vitrified by manual plunge freezing into a liquid ethane pool cooled by liquid nitrogen using a manual plunger in a 4° C. cold room >95% humidity. Samples containing IMiDs are prepared the same way, with 10× molar equivalent of drug yielding a buffer concentration 20 mM HEPES pH 7, 150 mM NaCl, 3 mM TCEP, <1% DMSO mixed 2 minutes prior to dilution and application to the grid. Similarly, Ikaros samples are prepared by incubation of 2-fold molar excess Ikaros 2 minutes prior to dilution and application to the grid. […]
# Ikaros/Cereblon/DDB1 = biological target: T2, Ikaros/Cereblon/DDB1 (Homo sapiens, UniProt Q96SW2); assay: cryo-EM of drug-mediated Ikaros recruitment to Cereblon-DDB1; conditions: wild-type Cereblon/DDB1, FIG. 4C; result in words
# T2 construct: human cereblon (amino acids 5-442); ZZ-domain-6×His-thrombin site (cleaved yes); made in house; host or cells: SF9 insect cells (CRBN-DDB1); E. coli BL21 (DE3) Star (Ikaros)
# Procedure: as §1
# P98A Cereblon-DDB1 = biological target: T3, P98A Cereblon-DDB1 (Homo sapiens, UniProt Q96SW2, P98A); assay: cryo-EM of P98A mutant Cereblon saturated with drug along with Ikaros; conditions: for conformation of P98A Cereblon in presence of drug (open/closed) / recruitment of Ikaros Zf 2-3 to P98A mutant Cereblon: result in words; for recruitment of Ikaros Zf 2-3 to P98A mutant Cereblon: FIG. 9
# T3 construct: human cereblon (amino acids 5-442); ZZ-domain-6×His-thrombin site (cleaved yes); made in house; host or cells: SF9 insect cells (CRBN-DDB1, by 'as before'); E. coli BL21 (DE3) Star (Ikaros)
# Procedure: Frozen 20 mg/mL cereblon-DDB1 complexes were thawed and diluted to 5 mg/mL with buffer containing 20 mM HEPES pH 7, 150 mM NaCl, 3 mM TCEP. Immediately prior to plunge-freezing in liquid ethane, samples are diluted 10-fold in the same buffer supplemented with 0.011% Lauryl Maltose-Neopentyl Glycol (LMNG) to limit complex dissociation. Quantifoil 300 mesh R1.2/1.3 UltrAuFoil Holey Gold Films were plasma cleaned for 7 seconds using a Solarus plasma cleaner (Gatan, Inc.) with a 75% nitrogen, 25% oxygen atmosphere at 15 W. Immediately prior to sample application, grids are further pre-treated with 4 μL solution containing 10 μM cereblon binding-deficient mutant Ikaros residues 140-196 Q146A G151N and blotted from behind with torn Whatman 1 filter paper. 4 μL dilute sample is applied, excess sample was blotted away for 4 s and vitrified by manual plunge freezing into a liquid ethane pool cooled by liquid nitrogen using a manual plunger in a 4° C. cold room >95% humidity. Samples containing IMiDs are prepared the same way, with 10× molar equivalent of drug yielding a buffer concentration 20 mM HEPES pH 7, 150 mM NaCl, 3 mM TCEP, <1% DMSO mixed 2 minutes prior to dilution and application to the grid. Similarly, Ikaros samples are prepared by incubation of 2-fold molar excess Ikaros 2 minutes prior to dilution and application to the grid.
# Cryo-EM data were collected on a Thermo-Fisher Talos Arctica transmission electron microscope operating at […] using parallel illumination conditions. Micrographs were acquired using a Gatan K2 Summit direct electron detector, operated in electron counting mode applying a total electron exposure of […]. The Leginon data collection software was used to collect 2912 micrographs at 36,000× nominal magnification (1.15 Å/pixel at the specimen level) with a nominal defocus set to −1.5 μm. Variation from the nominally set defocus due to a ˜5% tilt in the stage gave rise to a defocus range (this tilt was not intentional and required service to correct). Stage movement was used to target the center of sixteen 1.2 μm holes for focusing, and an image shift was used to acquire high magnification images in the center of each of the sixteen targeted holes.
# [3] = P98A mutant Cereblon, saturated with drug along with Ikaros
SMILES,improved affinity (Cereblon),change in solvent accessibility (HDX differential) upon addition of drug (Cereblon-DDB1 [1]),particles adopting CRBN^closed conformation (Cereblon-DDB1 [2]),recruitment of Ikaros ZF1-2-3 to CRBN^closed (Ikaros/Cereblon/DDB1),conformation of P98A Cereblon in presence of drug (open/closed) (P98A Cereblon-DDB1; [3]),recruitment of Ikaros Zf 2-3 to P98A mutant Cereblon (P98A Cereblon-DDB1),particles adopting CRBN^closed conformation with Ikaros bound (P98A Cereblon-DDB1; [3])
"O=C1CC[C@H](N2Cc3c(OCc4ccc(CN5CCOCC5)cc4)cccc3C2=O)C(=O)N1 [Compound 1, (S)-3-(4-((4-(morpholinomethyl)benzyl)oxy)-1-oxoisoindolin-2-yl)piperidine-2,6-dione]",approximately 20 fold,affected solvency for both the sensor loop and residues within the Lon domain and HB,~50%,is recruited to CRBN^closed,,,
"Nc1cccc2c1C(=O)N(C1CCC(=O)NC1=O)C2=O (stereo not drawn) [Pomalidomide, reference compound]",,,,,exclusively substrate-free open conformers; also recorded: cannot close,insufficient,
"N#Cc1ccc(N2CCN(Cc3ccc(COc4cccc5c4CN([C@H]4CCC(=O)NC4=O)C5=O)cc3)CC2)c(F)c1 [Compound 2, (S)-4-(4-(4-(((2-(2,6-dioxopiperidin-3-yl)-1-oxoisoindolin-4-yl)oxy)methyl)benzyl)piperazin-1-yl)-3-fluorobenzonitrile]",,,,,can overcome this mutation,sufficiently recruits Ikaros Zf 2-3,25%
